Reference: US6403647B1, “Pulsed administration of compositions for the treatment of blood disorders” (priority 1996, dated 2002)

Tested on: γ-globin expression
Assay: γ-globin mRNA by RNase protection in erythroid cell cultures of normal individuals
Format: cell-based, human
Conditions: for x increase: over ChFCS
Experimental: Fetal globin production was determined in erythroid progenitor cells cultured in the presence or absence of test compositions. Erythroid cells were purified from blood obtained from a normal individual . […] Erythroid cell cultures were established with the following conditions: IMDM methylcellulose media, erythropoietin (3 U/ml), the human subjects' mononuclear cells, 30% charcoal-absorbed fetal calf serum, and the test compounds at varying micromolar concentrations.
Compounds were tested for their ability to induce expression of fetal globin expression in erythroid cell cultures established from the peripheral blood of normal individuals. Colonies were harvested and assayed for globin mRNA following 14 days of culture. Each compound was tested in duplicate cultures from 2-4 individual human subjects. Globin expression was quantitated by RNase protection assay for % gamma globin as a fraction of total non-alpha globin (% gamma/gamma+beta globin mRNA).

CCCC(=O)NO [butyryl hydroxamate]
x increase (6 μM, group 1 (99-4, 99-5)): 1.0 x
γ/γ + β (6 μM, group 1, subject 99-4): 2.29%
γ/γ + β (6 μM, group 1, subject 99-5): 3.40%
γ/γ + β mean (6 μM, group 1, subjects 99-4, 99-5): 2.85%
x increase (10 μM, group 1 (99-4, 99-5)): 1.3 x
γ/γ + β (10 μM, group 1, subject 99-4): 3.44%
γ/γ + β (10 μM, group 1, subject 99-5): 4.06%
γ/γ + β mean (10 μM, group 1, subjects 99-4, 99-5): 3.75%
x increase (20 μM, group 1 (99-4, 99-5)): 1.9 x
γ/γ + β (20 μM, group 1, subject 99-4): 4.43%
γ/γ + β (20 μM, group 1, subject 99-5): 6.06%
γ/γ + β mean (20 μM, group 1, subjects 99-4, 99-5): 6.25%
x increase (20 μM, group 2 (99-6, 99-7)): 1.0 x
γ/γ + β (20 μM, group 2, subject 99-6): 8.65%
γ/γ + β (20 μM, group 2, subject 99-7): 12.49%
γ/γ + β mean (20 μM, group 2, subjects 99-6, 99-7): 10.57%
x increase (30 μM, group 1 (99-4, 99-5)): 1.7 x
γ/γ + β (30 μM, group 1, subject 99-4): 4.12%
γ/γ + β (30 μM, group 1, subject 99-5): 5.35%
γ/γ + β mean (30 μM, group 1, subjects 99-4, 99-5): 4.74%
x increase (40 μM, group 1 (99-4, 99-5)): 2.8 x
γ/γ + β (40 μM, group 1, subject 99-5): 7.72%
γ/γ + β mean (40 μM, group 1, subject 99-5 only): 7.72%
x increase (40 μM, group 2 (99-6, 99-7)): 1.5 x
γ/γ + β (40 μM, group 2, subject 99-6): 14.81%
γ/γ + β (40 μM, group 2, subject 99-7): 17.39%
γ/γ + β mean (40 μM, group 2, subjects 99-6, 99-7): 16.10%
x increase (60 μM, group 2 (99-6, 99-7)): 4.1 x
γ/γ + β (60 μM, group 2, subject 99-6): 37.65%
γ/γ + β (60 μM, group 2, subject 99-7): 51.04%
γ/γ + β mean (60 μM, group 2, subjects 99-6, 99-7): 44.35%
x increase (80 μM, group 2 (99-6, 99-7)): 4.7 x
γ/γ + β (80 μM, group 2, subject 99-6): 44.98%
γ/γ + β (80 μM, group 2, subject 99-7): 55.39%
γ/γ + β mean (80 μM, group 2, subjects 99-6, 99-7): 50.19%
x increase (100 μM, group 2 (99-6, 99-7)): 5.3 x
γ/γ + β (100 μM, group 2, subject 99-6): 54.06%
γ/γ + β (100 μM, group 2, subject 99-7): 60.90%
γ/γ + β mean (100 μM, group 2, subjects 99-6, 99-7): 57.48%
